Assay results from PubChem BioAssay AID624491 (Broad Institute, 2012).
Activity calls are given as the source filed them.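 How the source made its calls: active means fitted curve crossing a set activation limit at or below the highest valid dose tested; inconclusive means flat fit at 30 to 70% activation, or poor fit; inactive means the rest, including signal decreases.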

test system: D54 ERlucT glycosylation luciferase reporter, luminescence, 24 h; experiment: blockers of NLG process in reporter cells – D54 ERlucT cells, luminescence, cherry-picks, dose response (AID 624491);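 further: signal gain reflects blocked N-linked glycosylation of a luciferase reporter; actives raise luciferase signal so AC26 marks activators of the reporter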

With CCOC(=O)/C=C/C(=O)Nc1ccc(S(=O)(=O)N(C)c2ccccc2)cc1 the AC26 was > 5000 nM (inactive).

In order of rising AC26:
1. COC(=O)Nc1nc(-c2ccccc2)c(C(=O)c2ccc(Cl)cc2)s1  3.16 nM
2. CCCCCC(O)C=CC1C(O)CC(O)C1CC=CCCCC(=O)O (stereo not given)  7.83 nM
3. CC(=O)N(C1=C(Cl)C(=O)c2ccccc2C1=O)C1CCCCC1  31.1 nM
4. CCC(C)C(=O)OC1CCC=C2C=CC(C)C(CCC3CC(O)CC(=O)O3)C21 (stereo not given)  34.8 nM
5. CC(=O)c1ccc(Nc2nc(-c3sc(C)nc3C)cs2)cc1  40.5 nM
6. COc1ccccc1-c1nnc2sc(-c3cc4ccccc4o3)nn12  63.7 nM
7. Cc1ccc(S(=O)(=O)c2cc3c(=O)n4ccccc4nc3n(CCc3ccccc3)c2=N)cc1  84.5 nM
8. CCN(CC)CCCNc1ccc2ncn3c4ccc(O)cc4c(=O)c1c23  92.6 nM
9. COCCNc1nc(NCc2ccccc2)nc2ccsc12  136 nM
10. COc1ccc(Nc2cc(C)nc(-n3nc(C)cc3C)n2)cc1  193 nM
11. CCOc1ccc(NC(=O)c2cc(OC)nc3ccccc23)cc1  284 nM
12. O=C(N/N=C/c1ccco1)c1cc(-c2ccncc2)nc2ccccc12  285 nM
13. Nc1nc(=S)c2ncn([C@@H]3O[C@H](CO)[C@@H](O)[C@H]3O)c2[nH]1  368 nM
14. CC1CN(c2nc(-c3ccccc3)nnc2-c2ccccc2)CC(C)O1 (stereo not given)  368 nM
15. C[C@@]12C(=O)Nc3cc(Cl)ccc3C(=O)N1[C@H]1c3ccccc3OC[C@@H]1[C@@H]2c1ccccc1  397 nM
16. COc1ccc2c(c1)[C@H]1[C@H](CO2)[C@H](c2ccccc2)[C@]2(C)C(=O)Nc3ccc(Cl)cc3C(=O)N12  426 nM
17. Cc1cc(C)c2c(N)c3cccc(C)c3nc2n1  478 nM
18. COc1ccccc1/C=N/NC(=O)c1cc2c(OC)c(OC)ccc2[nH]1  495 nM
19. C/C(=N\NC(=O)c1c([N+](=O)[O-])c(C)nn1C)c1ccc(NC(=O)C2CCCC2)cc1  498 nM
20. CC1(C)Cc2c(c(N3CCOCC3)nc3snc(N)c23)CO1  502 nM
21. COc1cc(C(=O)OCCc2cc3ccccc3c(=O)o2)cc(OC)c1OC  562 nM
22. O=C(Nc1nc2ccccc2c(=O)s1)c1ccco1  653 nM
23. CCOC(=O)Nc1nc2ccc(Cn3cccc3)cc2[nH]1  674 nM
24. COc1ccc(CCn2c(=N)c(C(=O)NCCN3CCOCC3)cc3c(=O)n4cccc(C)c4nc32)cc1OC  739 nM
25. CCN(CC)c1ccc(/C=N/NC(=O)c2cnccn2)cc1  780 nM
26. Cn1cnc([N+](=O)[O-])c1Sc1nc2ccccc2[nH]1  797 nM
27. COc1cc2c(cc1OC)C(c1cccs1)N(C(=O)c1cccnc1)CC2 (stereo not given)  806 nM
28. CC(C)Oc1ccccc1C1CC(=O)Nc2cc3c(cc21)OCCO3 (stereo not given)  844 nM
29. O=c1[nH]c(=O)n(C2CC(O)C(CO)O2)cc1I (stereo not given)  880 nM
30. CC(=O)Nc1cc(-c2cccc(C(=O)N(C)C)c2)cn2c(-c3cccc(C(=O)N(C)C)c3)cnc12  897 nM
31. OCCNc1c2ccccc2nc2ccccc12  907 nM
32. CN(C)S(=O)(=O)c1ccc(N2CCCC2)c(C(=O)Nc2cccc(F)c2)c1  931 nM
33. O=C(CCl)Nc1cccc(S(=O)(=O)NC2=NCCC2)c1  939 nM
34. CN(C)/N=C/C=C1\CCC/C(=C\c2ccc(F)c(F)c2)C1=O  966 nM
35. COc1ccc(CCn2c(=N)c(S(=O)(=O)c3ccc(C)cc3)cc3c(=O)n4ccccc4nc32)cc1  988 nM
36. COc1ccc(NC(=O)c2ccc([N+](=O)[O-])o2)cc1  1020 nM
37. COc1cc(C2=NOC(C(=O)NCc3ccco3)C2)cc(OC)c1OC (stereo not given)  1030 nM
38. COc1ccc(C2=NOC(COc3ccc4c(C)cc(=O)oc4c3)C2)c(OC)c1 (stereo not given)  1070 nM
39. C=C(C)Cc1c(C)c(C#N)c2nc3ccccc3n2c1NCCCN(C)C  1080 nM
40. Oc1ccc(Nc2nc(NCC3CCCO3)c3ccccc3n2)cc1 (stereo not given)  1110 nM
41. COc1cc(C(=O)N/N=C/c2ccccn2)cc(OC)c1OC  1160 nM
42. Cc1ccc(CSc2ccc3nnc(-c4cccnc4)n3n2)cc1  1170 nM
43. COc1ccc(S(=O)(=O)NCc2ccccn2)cc1NC(=O)c1ccccc1F  1200 nM
44. Cn1cnc([N+](=O)[O-])c1S(=O)(=O)c1cccc(Cl)c1  1200 nM
45. COc1cc(-c2coc3c(C(=O)NCc4ccc(OC)c(OC)c4)cccc23)ccc1O  1220 nM
46. CCCCCCC(=O)N(O)C1CC(=O)N(c2ccc(F)cc2)C1=O (stereo not given)  1290 nM
47. COCCCNC(=O)c1sc2ncn(CC(=O)Nc3ccc(C)c(Cl)c3)c(=O)c2c1C  1380 nM
48. COc1cc(/C=N/NC(=O)c2cc(-c3c(C)nn(-c4ccccc4)c3C)n[nH]2)ccc1O  1390 nM
49. Nc1ccc2nc(-c3ccccc3)c(-c3ccccc3)nc2c1  1480 nM
50. CCC(C)Nc1nc2ccccc2n2c(C)nnc12 (stereo not given)  1500 nM
51. COc1ccccc1-n1cnc2cc(NCc3ccco3)ccc21  1510 nM
52. COc1ccc(C(=O)/C=C/c2ccccc2)c(O)c1  1520 nM
53. COc1cc(C(=O)OCCCN2CCCN(CCCOC(=O)c3cc(OC)c(OC)c(OC)c3)CC2)cc(OC)c1OC  1550 nM
54. COc1ccc([C@@H]2[C@@H]3C(=O)N(C(C)(C)C)C(=O)[C@@H]3[C@]3(Cc4ccccc4)C(=O)N(c4cccc(Br)c4)C(=O)N23)cc1  1600 nM
55. O=C(Oc1ccccc1C(=O)Nc1ccccc1)c1ccccc1Br  1670 nM
56. CCOC(=O)C(C)Oc1cccc2c(=O)n(CC(=O)NCc3ccc(F)cc3)ccc12 (stereo not given)  1720 nM
57. COc1ccc(C2C3=C(COC3=O)Oc3cc4c(cc32)OCO4)cc1OC (stereo not given)  1780 nM
58. COc1cc(C(=O)Nc2cc(C(F)(F)F)ccc2N2CCOCC2)ccc1OCC(=O)N1CCOCC1  1820 nM
59. Cc1cccc(N2CCN(C(=O)c3cc(S(=O)(=O)N4CCCC4)cn3C)CC2)c1C  2050 nM
60. CCOC(=O)c1c(C)[nH]c(C(=O)N/N=C/c2ccc(OC)c(OC)c2)c1C  2070 nM
61. CC1(C(=O)NCc2ccccc2)Cc2c(-c3cccc(C(N)=O)c3)ccnc2O1 (stereo not given)  2100 nM
62. C[C@@H](NC(=O)c1nc[nH]c1C(=O)N1CCN(c2ccccc2)CC1)c1ccccc1  2110 nM
63. CCn1c(SCC(=O)N/N=C/c2ccc(C)s2)nc2ccccc21  2200 nM
64. CCOc1cc(-c2cc(-c3ccccc3)nc(N)c2C#N)ccc1O  2480 nM
65. O=C(NCCc1ccccc1)C1c2ccccc2C(=O)N1Cc1cccs1 (stereo not given)  2690 nM
66. CN(C)CCOc1nc(-c2ccccc2)nc2c1oc1ccccc12  2700 nM
67. COc1ccc2[nH]c3c(N4CCC(O)(c5cccc(C(F)(F)F)c5)CC4)ncnc3c2c1  2740 nM
68. CCCNc1nc2ccccc2n2c(C)nnc12  2980 nM
69. Cc1nnc2c3ccccc3c(-c3cccs3)nn12  3170 nM
70. C[C@H](CO)N1C[C@H](C)[C@@H](CN(C)S(=O)(=O)c2ccccc2)Oc2c(NC(=O)Cc3ccccc3)cccc2C1=O  3400 nM
71. CCN(CCCNC(=O)CCCOc1cc(=O)n(C)c2ccccc12)Cc1ccccc1  3420 nM
72. COc1cccc(C(N)c2nc(-c3csc4ccccc34)cs2)c1 (stereo not given)  3590 nM
73. Cc1cc(NCCN2CCOCC2)c2ccc3ccccc3c2n1  3590 nM
74. O=C(NCCc1ccccc1)c1cc(-c2ccco2)on1  3780 nM
75. COc1ccc(-c2cc3ccccc3oc2=O)cc1NC(=S)NC(=O)c1ccc2c(c1)OCCO2  3970 nM
76. Cc1ccc(-c2nc3ncccc3o2)cc1NC(=O)c1ccc([N+](=O)[O-])o1  4010 nM
77. Cc1[nH]c2ccccc2c1/C=N/NC(=O)c1cc(-c2ccncc2)nc2ccccc12  4040 nM
78. Cc1nnc2c(NC(C)C)nc3ccccc3n12  4090 nM
79. CCn1c2ccccc2c2cc(NC(=O)COC(=O)c3ccccc3F)ccc21  4200 nM
80. CC(C)CCNC(=O)CCCOc1cc(=O)n(C)c2ccccc12  4270 nM
81. O=C(Nc1ccccc1O)c1ccc(NC(=O)C2CC2)cc1  4330 nM
82. Cc1cc([N+](=O)[O-])ccc1-c1ccc(/C=N/NC(=O)c2ccc(Br)o2)o1  4510 nM
83. Cc1cc(NC(=O)CSc2nc3sc(C)c(C)c3c(=O)n2C2CCCC2)no1  4700 nM
84. COc1cc2c(cc1OC)CN(c1ccc(C(F)(F)F)cn1)CC2  4710 nM
85. O=C(COC(=O)c1ccc(NS(=O)(=O)c2cccs2)cc1O)NCc1ccccc1  4820 nM
86. CCOC(=O)c1c(NC(=O)c2cc3n(n2)C(C(F)(F)F)CC(c2cccs2)N3)sc(C)c1C (stereo not given)  5140 nM
87. CN(CCCNC(=O)CCCOc1cc(=O)n(C)c2ccccc12)Cc1ccccc1  5230 nM
88. Cc1ccc(COc2ccccc2-c2cc(C(=O)N/N=C/c3cccnc3)[nH]n2)cc1  5260 nM
89. O=C(N/N=C/C(Br)=C/c1ccccc1)c1cc(-c2ccco2)[nH]n1  5350 nM
90. Cc1ccc(/C=N/NC(=O)CCn2nc(C)cc2C)c(C)c1  5510 nM
91. COc1ccc(C(=O)N2CCN(S(=O)(=O)c3ccc(C)cc3C)CC2)cc1S(=O)(=O)N1CCOCC1  5770 nM
92. NC(=O)CC(NC(=O)c1ccc(Br)cc1)c1ccc(NC2CCCCC2)c([N+](=O)[O-])c1 (stereo not given)  6020 nM
93. COc1ccc(CCn2c(=N)c(C(=O)NCc3ccco3)cc3c(=O)n4ccccc4nc32)cc1OC  6410 nM
94. O=C(/C=C/c1ccccc1)c1ccccc1  6780 nM
95. COc1cc(/C=C2\SC(=S)N(CCC(=O)N3CCCCC3)C2=O)cc(OC)c1OC  6840 nM
96. COc1cccc(-c2cc3nc(-c4ccccc4)cc(=O)n3[nH]2)c1  7070 nM
97. CCN(CC)CCn1c2ccccc2c2nc3ccc([N+](=O)[O-])cc3cc21  7740 nM
98. O=C(N/N=C\C=C\c1ccc([N+](=O)[O-])o1)c1cccs1  7850 nM
99. CC(=O)Nc1cccc(-c2ccnc3c2CC(C(=O)NCc2cccc(Cl)c2)O3)c1 (stereo not given)  9220 nM
100. O=C(c1[nH]c(C(F)(F)F)nc1-c1ccccc1)N1CCN(c2cccc(C(F)(F)F)n2)CC1  9230 nM
101. CN(C)CCCNc1c2c(nc3ccccc13)CCC2  9560 nM
102. COc1ccc(-n2c(=S)[nH]c3cc(C(=O)Nc4ccc(C)c(F)c4)ccc3c2=O)c(OC)c1  9690 nM
103. COc1ccc(Nc2nc(C)nc3sc4c(c23)CCC4)cc1O  11400 nM
104. Cc1noc2ncnc(Sc3ccccc3Cl)c12  12500 nM
105. Cc1ccccc1OCC(O)CN1CCN(CCN2C(=O)c3cccc4cccc(c34)C2=O)CC1 (stereo not given)  13500 nM
106. Clc1ccc(CSc2cnnc3ccccc23)cc1Cl  13500 nM
107. COC(=O)C1=C(c2cc3ccccc3s2)C[C@@H]2CC[C@H]1N2C(=O)N1CCOCC1  13600 nM
108. COc1ccc(-c2nc3c(s2)CCc2onc(-c4ccc(OC)cc4)c2-3)cc1  14400 nM
109. O=C(CNc1cccc2ccccc12)N/N=C/C(Br)=C/c1ccccc1  17100 nM
